Experimental data: patent US20230242544A1, “QUINAZOLINE COMPOUNDS, PREPARATION METHODS AND USES THEREOF” (INVENTISBIO CO., LTD., priority 2020, published 2023)
pKd: −log10 of the molar value.

Columns and labels:
[1] = biological target: recombinant human KRAS^G12D protein (Homo sapiens, UniProt P01116, G12D); test: Temperature-dependent Fluorescence (TdF) KRAS G12D protein binding assay; settings: 6 μM KRAS^G12D protein, 10 μM compound, Sypro Orange; Kd calculated from the fluorescent shift
Procedure, shortened: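 Thermal-shift binding with Sypro Orange: 6 μM KRAS^G12D and 10 μM compound in 25 mM HEPES pH 7.5, 150 mM NaCl, 10 mM MgCl2, 1% DMSO. Binding read as ΔTm with versus without compound; Kd calculated from the degree of fluorescence shift.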

Ba/F3_KRAS^G12D cells = Ba/F3_KRAS^G12D cells (Homo sapiens, UniProt P01116, G12D, cells depend on it); test: Ba/F3 KRAS G12D cell proliferation assay (CellTiter-Glo); format: cell-based; settings: treated for 3 days, cell-titer Glo, cell growth inhibition, read-out: BaF3_KRAS^G12D IC50
Ba/F3_KRAS^G12D cells, sequence (P01116 whole entry G12D): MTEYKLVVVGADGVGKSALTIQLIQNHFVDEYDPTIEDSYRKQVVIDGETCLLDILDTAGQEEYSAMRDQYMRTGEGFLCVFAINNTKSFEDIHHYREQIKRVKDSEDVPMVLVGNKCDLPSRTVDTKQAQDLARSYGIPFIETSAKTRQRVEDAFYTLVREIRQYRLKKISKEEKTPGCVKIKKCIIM
Procedure, shortened: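 KRAS G12D-transduced Ba/F3 cells, IL3-independent and puromycin-selected, seeded at 5×10^3/well overnight, then given serially diluted compound for 3 days. Proliferation read by CellTiter-Glo luminescence. IC50 from a four-parameter logistic fit with Hill slope.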

recombinant human KRAS^G12D protein, sequence (P01116 1-188 isoform P01116-2 G12D): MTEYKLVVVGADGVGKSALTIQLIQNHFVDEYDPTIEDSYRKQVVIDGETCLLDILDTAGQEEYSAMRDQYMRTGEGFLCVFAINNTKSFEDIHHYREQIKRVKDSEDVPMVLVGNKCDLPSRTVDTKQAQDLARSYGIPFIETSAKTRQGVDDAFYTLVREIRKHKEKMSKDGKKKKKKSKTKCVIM

`C#Cc1c(F)ccc2cc(O)cc(-c3cc(Cl)c4c(N5CC6CCC(C5)N6)nc(OC[C@@]56CCCN5C[C@H](F)C6)nc4c3F)c12` [Compound 168] gave a pKd [1] greater than 6.30 and a GI50 (Ba/F3_KRAS^G12D cells) of less than 500 nM.
